Target: T1, E. coli F1Fo ATP synthase (F1-ATPase) (Escherichia coli, UniProt P0ABA6+P0ABB0+P0ABB4)
T1 construct: gene atpD; with F1 alpha (atpA), gamma (atpG), delta and epsilon subunits; Fo (ab2c10–14) in the membrane preparation
Assay: ATPase activity assay (liberated Pi) on purified F1 and F1Fo membranes; reversal by dilution or centrifuge column
Assay type: biochemical

CC1=CC(=O)C(C(C)C)=CC1=O [TQ, thymoquinone]
IC50: ~37 µM

— article PMC4440651, “Thymoquinone Inhibits Escherichia coli ATP Synthase and Cell Growth” (PLoS ONE, 2015)
